Results taken from patent US11873291B2, “Quinoline cGAS antagonist compounds” (ImmuneSensor Therapeutics, Inc., priority 2020, dated 2024).

Each compound was assayed against T1, recombinant human cGAS (aa147-522) (Homo sapiens, UniProt Q8N884) (assay: In vitro inhibition assay of cGAS activity (ATP consumption, KinaseGlo Max)). Details: Table 3, read-out: cGAS Inhibition Results IC50.
T1 construct: recombinant human cGAS (aa147-522); His6-SUMO (cleaved yes); made in house; host or cells: E. coli BL21/pLys
T1 sequence (Q8N884 147-522): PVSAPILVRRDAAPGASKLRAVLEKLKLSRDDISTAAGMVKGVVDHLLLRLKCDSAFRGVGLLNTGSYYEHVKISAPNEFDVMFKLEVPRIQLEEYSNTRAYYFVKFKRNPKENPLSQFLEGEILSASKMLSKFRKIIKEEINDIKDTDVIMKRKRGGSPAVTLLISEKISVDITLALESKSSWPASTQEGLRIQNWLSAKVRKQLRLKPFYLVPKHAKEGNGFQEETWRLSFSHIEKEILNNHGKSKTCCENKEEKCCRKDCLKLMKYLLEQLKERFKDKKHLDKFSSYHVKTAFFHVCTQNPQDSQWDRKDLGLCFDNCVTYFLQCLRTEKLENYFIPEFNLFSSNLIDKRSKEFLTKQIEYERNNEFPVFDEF
Assay type: biochemical
Method in brief: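 IC50 came from plotting % ATP consumption against log compound concentration, with leftover ATP detected by KinaseGlo Max chemiluminescence. Reactions ran 20 min at 37 °C with 1.5 μg/mL human cGAS (aa147-522), 6.6 μM ATP, 0.1 mM GTP and 0.01 mg/mL DNA at pH 7.5.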

SMILES	IC50 [nM]
COC(=O)[C@@H]1[C@@H](C)CCN1c1cc(-n2ccnc2)c2ccc(Cl)c(Cl)c2n1 [I-590]	2000 to 30000
CC(C)COC(=O)[C@@H]1[C@@H](O)CCN1c1cc(-n2ccnc2)c2ccc(Cl)c(Cl)c2n1 [I-602]	2000 to 30000
NC(=O)C[C@@H]1CCCN1c1cc(-n2ccnc2)c2ccc(Cl)c(Cl)c2n1 [I-603]	< 2000
O=c1nc([C@@H]2CCCN2c2cc(-n3ccnc3)c3ccc(Cl)c(Cl)c3n2)o[nH]1 [I-605, (S)-5-(1-(7,8-dichloro-4-(1H-imidazol-1-yl)quinolin-2-yl)pyrrolidin-2-yl)-1,2,4-oxadiazol-3(2H)-one]	> 30000
O=C(O)[C@@H]1C[C@@H](OC(=O)N2CCOCC2)CN1c1cc(-n2ccnc2)c2ccc(Cl)c(Cl)c2n1 [I-606, (2S,4R)-1-(7,8-dichloro-4-(1H-imidazol-1-yl)quinolin-2-yl)-4-((morpholine-4-carbonyl)oxy)pyrrolidine-2-carboxylic acid]	2000 to 30000
O=C(O)CNC(=O)O[C@@H]1C[C@@H](C(=O)O)N(c2cc(-n3ccnc3)c3ccc(Cl)c(Cl)c3n2)C1 [I-607]	< 2000
NC(=O)CNC(=O)[C@@H]1CCCN1c1cc(-n2ccnc2)c2ccc(Cl)c(Cl)c2n1 [I-608]	2000 to 30000
COC(=O)c1cccc(S(=O)(=O)NCCN(C)c2cc(-n3ccnc3)c3ccc(Cl)c(Cl)c3n2)c1 [I-609]	> 30000
COCCS(=O)(=O)NCCN(C)c1cc(-n2ccnc2)c2ccc(Cl)c(Cl)c2n1 [I-610]	< 2000
COC(=O)c1ccc(S(=O)(=O)NCCN(C)c2cc(-n3ccnc3)c3ccc(Cl)c(Cl)c3n2)cc1 [I-611]	> 30000
CN(CCNS(=O)(=O)c1ccc(C(=O)O)cc1)c1cc(-n2ccnc2)c2ccc(Cl)c(Cl)c2n1 [I-612]	2000 to 30000
CN(CCNC(=O)CO)c1cc(-n2ccnc2)c2ccc(Cl)c(Cl)c2n1 [I-613]	< 2000
CN(CCNC(=O)CCO)c1cc(-n2ccnc2)c2ccc(Cl)c(Cl)c2n1 [I-614]	2000 to 30000
CN(CCNC(=O)C1CCC(C(=O)O)C1)c1cc(-n2ccnc2)c2ccc(Cl)c(Cl)c2n1 (centres unmarked) [I-615]	2000 to 30000
CN(CCNC(=O)CCC(=O)O)c1cc(-n2ccnc2)c2ccc(Cl)c(Cl)c2n1 [I-616]	< 2000
CN(CCNS(=O)(=O)CCC(=O)O)c1cc(-n2ccnc2)c2ccc(Cl)c(Cl)c2n1 [I-617]	< 2000
CN(CCNS(=O)(=O)CC(=O)O)c1cc(-n2ccnc2)c2ccc(Cl)c(Cl)c2n1 [I-618]	< 2000
CN(CCNC(=O)c1cccc(O)c1)c1cc(-n2ccnc2)c2ccc(Cl)c(Cl)c2n1 [I-619]	2000 to 30000
CN(CCNC(=O)c1cccc(C(=O)O)c1)c1cc(-n2ccnc2)c2ccc(Cl)c(Cl)c2n1 [I-620]	2000 to 30000
CN(CCN1C(=O)c2ccccc2S1(=O)=O)c1cc(-n2ccnc2)c2ccc(Cl)c(Cl)c2n1 [I-621]	2000 to 30000
CN(CCNC(=O)C1CCCC1C(=O)O)c1cc(-n2ccnc2)c2ccc(Cl)c(Cl)c2n1 (centres unmarked) [I-622]	< 2000
CN(CCNS(=O)(=O)c1cccc(C(=O)O)c1)c1cc(-n2ccnc2)c2ccc(Cl)c(Cl)c2n1 [I-623]	2000 to 30000
CN(CCS(=O)(=O)NCCO)c1cc(-n2ccnc2)c2ccc(Cl)c(Cl)c2n1 [I-624, 2-((7,8-dichloro-4-(1H-imidazol-1-yl)quinolin-2-yl)(methyl)amino)-N-(2-hydroxyethyl)ethane-1-sulfonamide]	< 2000
CC(=O)O[C@H]1CCN(c2cc(-n3ccnc3)c3ccc(Cl)c(Cl)c3n2)[C@@H]1C(=O)O [I-643, (2S,3S)-3-acetoxy-1-(7,8-dichloro-4-(1H-imidazol-1-yl)quinolin-2-yl)pyrrolidine-2-carboxylic acid]	< 2000

Results, then the compound that gave them:

IC50 [nM]	SMILES
< 2000	CN(CCS(=O)(=O)NC1CCC(C(=O)O)C1)c1cc(-n2ccnc2)c2ccc(Cl)c(Cl)c2n1 (centres unmarked) [I-625]
< 2000	CN(CCS(=O)(=O)N1CCCC1C(=O)O)c1cc(-n2ccnc2)c2ccc(Cl)c(Cl)c2n1 (centres unmarked) [I-626]
< 2000	CN(CCS(=O)(=O)N1CCC(C(=O)O)C1)c1cc(-n2ccnc2)c2ccc(Cl)c(Cl)c2n1 (centres unmarked) [I-627]
< 2000	CN(CCS(=O)(=O)NC1CCCC(C(=O)O)C1)c1cc(-n2ccnc2)c2ccc(Cl)c(Cl)c2n1 (centres unmarked) [I-628]
< 2000	CN(CCS(=O)(=O)N1CCCCC1C(=O)O)c1cc(-n2ccnc2)c2ccc(Cl)c(Cl)c2n1 (centres unmarked) [I-629]
< 2000	CN(CCS(=O)(=O)NCCC(=O)O)c1cc(-n2ccnc2)c2ccc(Cl)c(Cl)c2n1 [I-630]
< 2000	CN(CCS(=O)(=O)N1CCCC(C(=O)O)C1)c1cc(-n2ccnc2)c2ccc(Cl)c(Cl)c2n1 (centres unmarked) [I-631]
< 2000	CN(CCS(=O)(=O)NCCCO)c1cc(-n2ccnc2)c2ccc(Cl)c(Cl)c2n1 [I-632]
< 2000	CN(CCS(=O)(=O)NCC(=O)O)c1cc(-n2ccnc2)c2ccc(Cl)c(Cl)c2n1 [I-633]
< 2000	CN(CCN(CCC(=O)O)S(C)(=O)=O)c1cc(-n2ccnc2)c2ccc(Cl)c(Cl)c2n1 [I-634, 3-(N-(2-((7,8-dichloro-4-(1H-imidazol-1-yl)quinolin-2-yl)(methyl)amino)ethyl)methylsulfonamido) propanoic acid]
< 2000	CN(CCN(CC(=O)O)S(C)(=O)=O)c1cc(-n2ccnc2)c2ccc(Cl)c(Cl)c2n1 [I-635, N-(2-((7,8-dichloro-4-(1H-imidazol-1-yl)quinolin-2-yl)(methyl)amino)ethyl)-N-(methylsulfonyl)glycine]
< 2000	CN(CCN(Cc1cccc(C(=O)O)c1)S(C)(=O)=O)c1cc(-n2ccnc2)c2ccc(Cl)c(Cl)c2n1 [I-636, 3-((N-(2-((7,8-dichloro-4-(1H-imidazol-1-yl)quinolin-2-yl)(methyl)amino)ethyl)methylsulfonamido)methyl)benzoic acid]
< 2000	O=C1NC(=O)[C@H](CS(=O)(=O)NC[C@@H]2CCCN2c2cc(-n3ccnc3)c3ccc(Cl)c(Cl)c3n2)N1 [I-637]
2000 to 30000	O=C(O)c1cccc(S(=O)(=O)NC[C@@H]2CCCN2c2cc(-n3ccnc3)c3ccc(Cl)c(Cl)c3n2)c1 [I-638]
< 2000	O=C(O)CS(=O)(=O)NC[C@@H]1CCCN1c1cc(-n2ccnc2)c2ccc(Cl)c(Cl)c2n1 [I-639]
< 2000	O=C(O)c1ccc(S(=O)(=O)NC[C@@H]2CCCN2c2cc(-n3ccnc3)c3ccc(Cl)c(Cl)c3n2)cc1 [I-640]
< 2000	O=C(NC[C@@H]1CCCN1c1cc(-n2ccnc2)c2ccc(Cl)c(Cl)c2n1)c1cc(O)no1 [I-641]
2000 to 30000	CC(C)(C)OC(=O)[C@@H]1CCCN1c1cc(-n2ccnc2)c2ccc(Cl)c(Cl)c2n1 [I-644]
2000 to 30000	COC(=O)[C@@H]1[C@@H](OC)CCN1c1cc(-n2ccnc2)c2ccc(Cl)c(Cl)c2n1 [I-646, methyl (2S,3S)-1-(7,8-dichloro-4-(1H-imidazol-1-yl)quinolin-2-yl)-3-methoxypyrrolidine-2-carboxylate]
2000 to 30000	COC(=O)[C@@H]1[C@H](OC)CCN1c1cc(-n2ccnc2)c2ccc(Cl)c(Cl)c2n1 [I-647]
2000 to 30000	COC(=O)[C@@H]1[C@H](OCC(=O)O)CCN1c1cc(-n2ccnc2)c2ccc(Cl)c(Cl)c2n1 [I-648]
< 2000	O=C(O)[C@@H]1[C@@H](F)CCN1c1cc(-n2ccnc2)c2ccc(Cl)c(Cl)c2n1 [I-651]
2000 to 30000	COC(=O)C1=CCCN1c1cc(-n2ccnc2)c2ccc(Cl)c(Cl)c2n1 [I-652, methyl 1-(7,8-dichloro-4-(1H-imidazol-1-yl)quinolin-2-yl)-4,5-dihydro-1H-pyrrole-2-carboxylate]
